Holding throughout (assay type): functional
For test [1], the system named is Nakaseomyces glabratus. The test can be described thus: Antifungal activity against 16 days cultured Candida glabrata isolated from invasive fungal infected subject blood after 17 days of prophylaxis by broth microdilution method. A general note: In broth dilution the organism is exposed to a series of concentrations in liquid medium.
In test [2] the test system is Pichia kudriavzevii. As to the kind of experiment: Antifungal activity against 14 days cultured Candida krusei isolated from neutropenic subject with AML or MDS pharynx after 12 days of prophylaxis by broth microdilution method.
Test [3] has as its system Nakaseomyces glabratus. The test can be described thus: Antifungal activity against 59 days cultured Candida glabrata isolated from HSCT recipient with acute or chronic GVHD mouth receiving antifungal therapy for 75 days after 33 days of prophylaxis by broth microdilution method.
In test [4] the test system is Nakaseomyces glabratus. The test can be described thus: Antifungal activity against 1 day cultured Candida glabrata isolated from neutropenic subject with AML or MDS stool receiving antifungal therapy for 25 days after 3 days of prophylaxis by broth microdilution method.
For test [5], the system named is Nakaseomyces glabratus. As to the kind of experiment: Antifungal activity against 56 days cultured Candida glabrata isolated from HSCT recipient with acute or chronic GVHD mouth receiving antifungal therapy for 172 days after 114 days of prophylaxis by broth microdilution method.
For test [6], the system named is Pichia kudriavzevii. As to the kind of experiment: Antifungal activity against 16 days cultured Candida krusei isolated from neutropenic subject with AML or MDS pharynx receiving antifungal therapy for 19 days after 6 days of prophylaxis by broth microdilution method.
Test [7] concerns Nakaseomyces glabratus. As to the kind of experiment: Antifungal activity against Candida glabrata isolated from HSCT recipients with acute or chronic GVHD prior to initiation of posaconazole therapy by broth microdilution method.
For test [8], the system named is Nakaseomyces glabratus. The test can be described thus: Antifungal activity against Candida glabrata isolated from HSCT recipients with acute or chronic GVHD receiving posaconazole by broth microdilution method.
For test [9], the system named is Nakaseomyces glabratus. As to the kind of experiment: Antifungal activity against Candida glabrata isolated from HSCT recipients with acute or chronic GVHD prior to initiation of posaconazole therapy assessed as maximum MIC by broth microdilution method.
The test system of test [10] is Nakaseomyces glabratus. As to the kind of experiment: Antifungal activity against Candida glabrata isolated from HSCT recipients with acute or chronic GVHD receiving posaconazole assessed as maximum MIC by broth microdilution method.
Test [11] deals with Pichia kudriavzevii. As to the kind of experiment: Antifungal activity against Candida krusei isolated from HSCT recipients with acute or chronic GVHD receiving fluconazole by broth microdilution method.
Test [12] relates to Nakaseomyces glabratus. The test can be described thus: Antifungal activity against Candida glabrata isolated from HSCT recipient 002 with acute or chronic GVHD mouth after 116 days prophylaxis by broth microdilution method.
Test [13] deals with Nakaseomyces glabratus. As to the kind of experiment: Antifungal activity against Candida glabrata isolated from HSCT recipient 807 with acute or chronic GVHD mouth receiving antifungal drug after 114 days prophylaxis by broth microdilution method.
Test [14] has as its system Nakaseomyces glabratus. As to the kind of experiment: Ratio of CDR1 gene expression in Candida glabrata isolated from patient 491 receiving antifungal drug to CDR1 gene expression in Candida glabrata isolated from patient 491 by RT-PCR analysis.
In test [15] the test system is Nakaseomyces glabratus. The test can be described thus: Ratio of ERG11 gene expression in Candida glabrata isolated from patient 491 receiving antifungal drug to ERG11 gene expression in Candida glabrata isolated from patient 491 by RT-PCR analysis.
Test [16] relates to Nakaseomyces glabratus. The test can be described thus: Ratio of URA3 gene expression in Candida glabrata isolated from patient 491 receiving antifungal drug to URA3 gene expression in Candida glabrata isolated from patient 491 by RT-PCR analysis.
The test system of test [17] is Nakaseomyces glabratus. The test can be described thus: Ratio of CDR1 gene expression in Candida glabrata isolated from patient 002 receiving antifungal drug to CDR1 gene expression in Candida glabrata isolated from patient 002 by RT-PCR analysis.
Test [18] has as its system Nakaseomyces glabratus. The test can be described thus: Ratio of CDR2 gene expression in Candida glabrata isolated from patient 002 receiving antifungal drug to CDR2 gene expression in Candida glabrata isolated from patient 002 by RT-PCR analysis.
Test [19] has as its system Nakaseomyces glabratus. As to the kind of experiment: Ratio of ERG11 gene expression in Candida glabrata isolated from patient 002 receiving antifungal drug to ERG11 gene expression in Candida glabrata isolated from patient 002 by RT-PCR analysis.
The test system of test [20] is Nakaseomyces glabratus. The test can be described thus: Ratio of URA3 gene expression in Candida glabrata isolated from patient 002 receiving antifungal drug to URA3 gene expression in Candida glabrata isolated from patient 002 by RT-PCR analysis.
In test [21] the test system is Nakaseomyces glabratus. The test can be described thus: Ratio of CDR1 gene expression in Candida glabrata isolated from patient 497 receiving antifungal drug to CDR1 gene expression in Candida glabrata isolated from patient 497 by RT-PCR analysis.
For test [22], the system named is Nakaseomyces glabratus. The test can be described thus: Ratio of CDR2 gene expression in Candida glabrata isolated from patient 497 receiving antifungal drug to CDR2 gene expression in Candida glabrata isolated from patient 497 by RT-PCR analysis.
Test [23] deals with Nakaseomyces glabratus. The test can be described thus: Ratio of ERG11 gene expression in Candida glabrata isolated from patient 497 receiving antifungal drug to ERG11 gene expression in Candida glabrata isolated from patient 497 by RT-PCR analysis.
The test system of test [24] is Nakaseomyces glabratus. The test can be described thus: Ratio of URA3 gene expression in Candida glabrata isolated from patient 497 receiving antifungal drug to URA3 gene expression in Candida glabrata isolated from patient 497 by RT-PCR analysis.
Test [25] deals with Nakaseomyces glabratus. As to the kind of experiment: Ratio of CDR1 gene expression in Candida glabrata isolated from patient 807 receiving antifungal drug to CDR1 gene expression in Candida glabrata isolated from patient 807 by RT-PCR analysis.
Test [26] deals with Nakaseomyces glabratus. As to the kind of experiment: Ratio of ERG11 gene expression in Candida glabrata isolated from patient 807 receiving antifungal drug to ERG11 gene expression in Candida glabrata isolated from patient 807 by RT-PCR analysis.
Test [27] relates to Nakaseomyces glabratus. The test can be described thus: Ratio of URA3 gene expression in Candida glabrata isolated from patient 807 receiving antifungal drug to URA3 gene expression in Candida glabrata isolated from patient 807 by RT-PCR analysis.
The subject of test [28] is Nakaseomyces glabratus. As to the kind of experiment: Ratio of URA3 gene expression in Candida glabrata isolated from patient 975 receiving antifungal drug to URA3 gene expression in Candida glabrata isolated from patient 975 by RT-PCR analysis.
Test [29] relates to Nakaseomyces glabratus. As to the kind of experiment: Antifungal activity against Candida glabrata isolated from HSCT recipient 491 with acute or chronic GVHD mouth after 112 days prophylaxis by broth microdilution method.
Test [30] deals with Nakaseomyces glabratus. As to the kind of experiment: Ratio of CDR1 gene expression in Candida glabrata isolated from patient 186 receiving antifungal drug to CDR1 gene expression in Candida glabrata isolated from patient 186 by RT-PCR analysis.
Test [31] relates to Nakaseomyces glabratus. As to the kind of experiment: Ratio of CDR2 gene expression in Candida glabrata isolated from patient 186 receiving antifungal drug to CDR2 gene expression in Candida glabrata isolated from patient 186 by RT-PCR analysis.
The subject of test [32] is Nakaseomyces glabratus. As to the kind of experiment: Ratio of ERG11 gene expression in Candida glabrata isolated from patient 186 receiving antifungal drug to ERG11 gene expression in Candida glabrata isolated from patient 186 by RT-PCR analysis.
Test [33] relates to Nakaseomyces glabratus. As to the kind of experiment: Ratio of URA3 gene expression in Candida glabrata isolated from patient 186 receiving antifungal drug to URA3 gene expression in Candida glabrata isolated from patient 186 by RT-PCR analysis.
In test [34] the test system is Nakaseomyces glabratus. As to the kind of experiment: Ratio of CDR1 gene expression in Candida glabrata isolated from patient 975 receiving antifungal drug to CDR1 gene expression in Candida glabrata isolated from patient 975 by RT-PCR analysis.
For test [35], the system named is Nakaseomyces glabratus. As to the kind of experiment: Ratio of CDR2 gene expression in Candida glabrata isolated from patient 975 receiving antifungal drug to CDR2 gene expression in Candida glabrata isolated from patient 975 by RT-PCR analysis.
Test [36] concerns Nakaseomyces glabratus. The test can be described thus: Ratio of ERG11 gene expression in Candida glabrata isolated from patient 975 receiving antifungal drug to ERG11 gene expression in Candida glabrata isolated from patient 975 by RT-PCR analysis.

The results in this text go back to ChEMBL document CHEMBL1687752, “Impact of antifungal prophylaxis on colonization and azole susceptibility of Candida species” (2009).

What is called MIC is the least concentration at which growth counts as inhibited. A word on the MIC50: it is an inhibitory concentration at the 50% level, which refers to growth in some studies and to a panel of isolates in others. As a reminder, the MIC90 is an inhibitory concentration at the 90% level, which refers to growth in some studies and to a panel of isolates in others. Read a low MIC90 as greater potency.

Each structure is given as a SMILES string. Values after ≈ are worked out from the molar mass of the structure shown. Where only a bound is given, the exact number is not on record here.

Take `CCC(C)n1ncn(-c2ccc(N3CCN(c4ccc(OCC5COC(Cn6cncn6)(c6ccc(Cl)cc6Cl)O5)cc4)CC3)cc2)c1=O` (stereo not given) [ITRACONAZOLE]: the MIC in the test on Nakaseomyces glabratus [1] was greater than 8 µg/mL; with Pichia kudriavzevii [2], 0.25 µg/mL (≈ 0.354 µM); against Nakaseomyces glabratus [3] it was 1 µg/mL (≈ 1.42 µM); in the test with Nakaseomyces glabratus [4], 8 µg/mL (≈ 11.3 µM); against Nakaseomyces glabratus [5], 0.5 µg/mL (≈ 0.709 µM); in the test on Pichia kudriavzevii [6], 0.5 µg/mL (≈ 0.709 µM). The minimal inhibitory concentration (MIC) with Nakaseomyces glabratus [9] is 8 µg/mL; with Nakaseomyces glabratus [10] it was 8 µg/mL; against Nakaseomyces glabratus [12], 1 µg/mL (≈ 1.42 µM); against Nakaseomyces glabratus [13] it was greater than 8 µg/mL. Moreover, the MIC50 against Nakaseomyces glabratus [7] turned out to be 1 µg/mL (≈ 1.42 µM); in the test with Nakaseomyces glabratus [8] it was 2 µg/mL (≈ 2.83 µM); against Pichia kudriavzevii [11], 0.5 µg/mL (≈ 0.709 µM). The MIC90 in the test on Nakaseomyces glabratus [7] is 8 µg/mL (≈ 11.3 µM); in the test on Nakaseomyces glabratus [8] it was 8 µg/mL (≈ 11.3 µM); in the test on Pichia kudriavzevii [11] it was 16 µg/mL (≈ 22.7 µM).
In the case of `OC(Cn1cncn1)(Cn1cncn1)c1ccc(F)cc1F` [FLUCONAZOLE], the “fold change (FC)” value in the test on Nakaseomyces glabratus [14] is 4.5; with Nakaseomyces glabratus [15] it was 1.2; with Nakaseomyces glabratus [16], 1; in the test on Nakaseomyces glabratus [17] it was 1.5; with Nakaseomyces glabratus [18] it was -1.2; in the test with Nakaseomyces glabratus [19], -1.2. Further, the “fold change (FC)” value in the test on Nakaseomyces glabratus [20] is -1.2; in the test with Nakaseomyces glabratus [21], 1.3; with Nakaseomyces glabratus [22], -1.2; with Nakaseomyces glabratus [23] it was -1.2; with Nakaseomyces glabratus [24], -1.2; in the test with Nakaseomyces glabratus [25] it was 4.3. The “fold change (FC)” value in the test with Nakaseomyces glabratus [26] stood at 1.1; in the test with Nakaseomyces glabratus [27] it was 1.4. Besides, the minimal inhibitory concentration (MIC) turned out to be 64 µg/mL (≈ 209 µM) against Pichia kudriavzevii [2]; 16 µg/mL (≈ 52.2 µM) against Nakaseomyces glabratus [3]; 16 µg/mL (≈ 52.2 µM) against Nakaseomyces glabratus [4]; 4 µg/mL (≈ 13.1 µM) against Nakaseomyces glabratus [5]; 64 µg/mL (≈ 209 µM) against Pichia kudriavzevii [6]; 64 µg/mL in the test on Nakaseomyces glabratus [9]. Moreover, the minimum inhibitory concentration (MIC) with Nakaseomyces glabratus [10] was 64 µg/mL; against Nakaseomyces glabratus [12], 16 µg/mL (≈ 52.2 µM); against Nakaseomyces glabratus [13], 128 µg/mL (≈ 418 µM). Moreover, the MIC50 against Nakaseomyces glabratus [7] is 16 µg/mL (≈ 52.2 µM); against Nakaseomyces glabratus [8] it was 64 µg/mL (≈ 209 µM); against Pichia kudriavzevii [11] it was 64 µg/mL (≈ 209 µM). Moreover, the MIC90 in the test with Nakaseomyces glabratus [7], against Nakaseomyces glabratus [8] and in the test on Pichia kudriavzevii [11] was 64 µg/mL (≈ 209 µM) throughout.
Consider `CC[C@@H]([C@H](C)O)n1ncn(-c2ccc(N3CCN(c4ccc(OC[C@@H]5CO[C@@](Cn6cncn6)(c6ccc(F)cc6F)C5)cc4)CC3)cc2)c1=O` [POSACONAZOLE], for which the minimal inhibitory concentration (MIC) is greater than 8 µg/mL against Nakaseomyces glabratus [1]; 0.125 µg/mL (≈ 0.178 µM) in the test with Pichia kudriavzevii [2]; 1 µg/mL (≈ 1.43 µM) in the test with Nakaseomyces glabratus [3]; 4 µg/mL (≈ 5.71 µM) with Nakaseomyces glabratus [4]; 0.25 µg/mL (≈ 0.357 µM) against Nakaseomyces glabratus [5]; 0.25 µg/mL (≈ 0.357 µM) against Pichia kudriavzevii [6]. Besides, the MIC with Nakaseomyces glabratus [9] is 8 µg/mL; with Nakaseomyces glabratus [10], 8 µg/mL; in the test with Nakaseomyces glabratus [12], 0.5 µg/mL (≈ 0.713 µM); against Nakaseomyces glabratus [13], greater than 8 µg/mL; against Nakaseomyces glabratus [29], 0.25 µg/mL (≈ 0.357 µM). Moreover, the “fold change (FC)” value in the test with Nakaseomyces glabratus [28] is reported as 1.2; in the test on Nakaseomyces glabratus [30], -1.5; in the test with Nakaseomyces glabratus [31], -1.45; in the test with Nakaseomyces glabratus [32] it was -1.4; with Nakaseomyces glabratus [33], -1.4; in the test with Nakaseomyces glabratus [34], 2.25. The “fold change (FC)” value in the test with Nakaseomyces glabratus [35] was determined as 1.5; in the test on Nakaseomyces glabratus [36], 1.6. Further, the MIC50 against Nakaseomyces glabratus [7] turned out to be 0.5 µg/mL (≈ 0.713 µM); against Nakaseomyces glabratus [8], 2 µg/mL (≈ 2.85 µM); against Pichia kudriavzevii [11], 0.25 µg/mL (≈ 0.357 µM). In addition, the MIC90 came to 4 µg/mL (≈ 5.71 µM) against Nakaseomyces glabratus [7], 8 µg/mL (≈ 11.4 µM) in the test with Nakaseomyces glabratus [8] and 0.5 µg/mL (≈ 0.713 µM) with Pichia kudriavzevii [11].
